System: NF-κB activation
Assay: Inhibitory activity against NF-κB activation, luciferase reporter assay under TNF-α stimulation
Assay type: cell-based, human
Details: HepG2 cells, TNF-α 40 ng/ml, 4 hours; for inhibition at 1 µg/mL / inhibition at 10 µg/mL: Homo sapiens, read-out: Inhibitory Ratio of NF-κ B Activation(%)
Method: Inhibitory activity against NF-κB activation was measured by referring to the method of Hill et al. (Cell, (USA), in 1993, Vol. 73, No. 2, p. 395-406). Using a transfection reagent(Effectene; QIAGEN), the human hepatoma cell strain HepG2 was transfected with a plasmid (pNFκ Luc Reporter Plasmid; STRATAGENE) integrated with an oligonucleotide having five tandem copies of NF-κB binding sequences(TGGGGACTTTCCGC) on a upstream region of firefly luciferase gene (Luc) according to the QIAGEN's protocol, and the cells were incubated for 6 to 24 hours. Then the cells were cultured for 4 hours after the addition of TNF-α (40 ng/ml) in the presence of a test compound, and intracellular luciferase activity was measured by using PicaGene LT (TOYO INK MFG Co., Ltd.) and a chemical luminescence measurement apparatus(SPECTRAFluor Plus; TECAN). The inhibitory ratio was measured as a ratio relative to a value of the luciferase activity in the absence of the test compound.

**Q.** Which results are given for `CC(C)(C)C(=O)Oc1ccc(Cl)cc1C(=O)Nc1cc(C(F)(F)F)cc(C(F)(F)F)c1` [Compound 1, 5-Chloro-2-pivaloyloxy-N-[3,5-bis(trifluoromethyl)phenyl]benzamide]?
**A.** inhibition at 1 µg/mL (Drug Concentration 1 μg/mL): 94.9%; inhibition at 10 µg/mL (Drug Concentration 10 μg/mL): 95.8%

**Q.** Which “Inhibitory Ratio of NF-κ B Activation(%)” value (Drug Concentration 1 μg/mL) does the source give for `CCCCC(=O)Oc1ccc(Cl)cc1C(=O)Nc1cc(C(F)(F)F)cc(C(F)(F)F)c1` [Compound 2] here?
**A.** The value was 97.9%.

**Q.** What about the “Inhibitory Ratio of NF-κ B Activation(%)” value (Drug Concentration 10 μg/mL) of the same compound?
**A.** Its value is 98.6%.

**Q.** With `CCCCCCCCCC(=O)Oc1ccc(Cl)cc1C(=O)Nc1cc(C(F)(F)F)cc(C(F)(F)F)c1` [Compound 3] as the compound, how does the “Inhibitory Ratio of NF-κ B Activation(%)” value (Drug Concentration 1 μg/mL) read?
**A.** The value was 96.1%.

**Q.** What about the “Inhibitory Ratio of NF-κ B Activation(%)” value (Drug Concentration 10 μg/mL) of the same compound?
**A.** The value was 98.4%.

**Q.** Which “Inhibitory Ratio of NF-κ B Activation(%)” value (Drug Concentration 1 μg/mL) does the source give for `O=C(Oc1ccc(Cl)cc1C(=O)Nc1cc(C(F)(F)F)cc(C(F)(F)F)c1)c1ccccc1` [Compound 4] here?
**A.** Its value is 94.2%.

**Q.** And the “Inhibitory Ratio of NF-κ B Activation(%)” value (Drug Concentration 10 μg/mL)?
**A.** The value was 97.5%.

**Q.** How did the “Inhibitory Ratio of NF-κ B Activation(%)” value (Drug Concentration 1 μg/mL) turn out when `CC(=O)Oc1ccccc1C(=O)Oc1ccc(Cl)cc1C(=O)Nc1cc(C(F)(F)F)cc(C(F)(F)F)c1` [Compound 5] was run?
**A.** Its value is 96.1%.

**Q.** What about the “Inhibitory Ratio of NF-κ B Activation(%)” value (Drug Concentration 10 μg/mL) of the same compound?
**A.** The value was 98.0%.

**Q.** How did the “Inhibitory Ratio of NF-κ B Activation(%)” value (Drug Concentration 1 μg/mL) turn out when `O=C(Oc1ccc(Cl)cc1C(=O)Nc1cc(C(F)(F)F)cc(C(F)(F)F)c1)c1cccnc1` [Compound 6] was run?
**A.** The value was 94.4%.

**Q.** And the “Inhibitory Ratio of NF-κ B Activation(%)” value (Drug Concentration 10 μg/mL)?
**A.** Its value is 98.1%.

**Q.** How did the “Inhibitory Ratio of NF-κ B Activation(%)” value (Drug Concentration 1 μg/mL) turn out when `O=C(Oc1ccc(Cl)cc1C(=O)Nc1cc(C(F)(F)F)cc(C(F)(F)F)c1)c1ccncc1` [Compound 7] was run?
**A.** The value was 93.9%.

**Q.** What about the “Inhibitory Ratio of NF-κ B Activation(%)” value (Drug Concentration 10 μg/mL) of the same compound?
**A.** Its value is 98.8%.

**Q.** What does the source list for `O=C(Cc1ccccc1)Oc1ccc(Cl)cc1C(=O)Nc1cc(C(F)(F)F)cc(C(F)(F)F)c1` [Compound 8]?
**A.** Inhibitory Ratio of NF-κ B Activation(%) (Drug Concentration 1 μg/mL): 95.0%; Inhibitory Ratio of NF-κ B Activation(%) (Drug Concentration 10 μg/mL): 97.9%

**Q.** How did the “Inhibitory Ratio of NF-κ B Activation(%)” value (Drug Concentration 1 μg/mL) turn out when `O=C(Cc1ccc2c(c1)OCO2)Oc1ccc(Cl)cc1C(=O)Nc1cc(C(F)(F)F)cc(C(F)(F)F)c1` [Compound 9] was run?
**A.** Its value is 94.6%.

**Q.** What about the “Inhibitory Ratio of NF-κ B Activation(%)” value (Drug Concentration 10 μg/mL) of the same compound?
**A.** The value was 97.3%.

**Q.** Which results are given for `COCC(=O)Oc1ccc(Cl)cc1C(=O)Nc1cc(C(F)(F)F)cc(C(F)(F)F)c1` [Compound 10]?
**A.** Inhibitory Ratio of NF-κ B Activation(%) (Drug Concentration 1 μg/mL): 95.3%; Inhibitory Ratio of NF-κ B Activation(%) (Drug Concentration 10 μg/mL): 97.4%

**Q.** For `CC(=O)OCC(=O)Oc1ccc(Cl)cc1C(=O)Nc1cc(C(F)(F)F)cc(C(F)(F)F)c1` [Compound 11], which “Inhibitory Ratio of NF-κ B Activation(%)” value (Drug Concentration 1 μg/mL) is on record?
**A.** The value was 97.3%.

**Q.** And the “Inhibitory Ratio of NF-κ B Activation(%)” value (Drug Concentration 10 μg/mL)?
**A.** The value was 99.2%.

**Q.** For `O=C(COc1ccccc1)Oc1ccc(Cl)cc1C(=O)Nc1cc(C(F)(F)F)cc(C(F)(F)F)c1` [Compound 12], which “Inhibitory Ratio of NF-κ B Activation(%)” value (Drug Concentration 1 μg/mL) is on record?
**A.** The value was 95.5%.

**Q.** And the “Inhibitory Ratio of NF-κ B Activation(%)” value (Drug Concentration 10 μg/mL)?
**A.** Its value is 97.5%.

**Q.** Which results are given for `O=C(COc1ccc(Cl)cc1)Oc1ccc(Cl)cc1C(=O)Nc1cc(C(F)(F)F)cc(C(F)(F)F)c1` [Compound 13]?
**A.** Inhibitory Ratio of NF-κ B Activation(%) (Drug Concentration 1 μg/mL): 96.6%; Inhibitory Ratio of NF-κ B Activation(%) (Drug Concentration 10 μg/mL): 98.7%

**Q.** Which results are given for `O=C(COc1cccc(Cl)c1Cl)Oc1ccc(Cl)cc1C(=O)Nc1cc(C(F)(F)F)cc(C(F)(F)F)c1` [Compound 14]?
**A.** Inhibitory Ratio of NF-κ B Activation(%) (Drug Concentration 1 μg/mL): 98.9%; Inhibitory Ratio of NF-κ B Activation(%) (Drug Concentration 10 μg/mL): 99.4%

**Q.** How did the “Inhibitory Ratio of NF-κ B Activation(%)” value (Drug Concentration 1 μg/mL) turn out when `CC(Oc1ccccc1)C(=O)Oc1ccc(Cl)cc1C(=O)Nc1cc(C(F)(F)F)cc(C(F)(F)F)c1` (stereo not shown) [Compound 15] was run?
**A.** Its value is 97.9%.

**Q.** And the “Inhibitory Ratio of NF-κ B Activation(%)” value (Drug Concentration 10 μg/mL)?
**A.** Its value is 99.1%.

**Q.** Which results are given for `CC(C)(Oc1ccc(Cl)cc1)C(=O)Oc1ccc(Cl)cc1C(=O)Nc1cc(C(F)(F)F)cc(C(F)(F)F)c1` [Compound 16]?
**A.** Inhibitory Ratio of NF-κ B Activation(%) (Drug Concentration 1 μg/mL): 96.6%; Inhibitory Ratio of NF-κ B Activation(%) (Drug Concentration 10 μg/mL): 98.4%

**Q.** How did the “Inhibitory Ratio of NF-κ B Activation(%)” value (Drug Concentration 1 μg/mL) turn out when `CC(C)(C)OC(=O)CC(=O)Oc1ccc(Cl)cc1C(=O)Nc1cc(C(F)(F)F)cc(C(F)(F)F)c1` [Compound 17] was run?
**A.** Its value is 97.0%.

**Q.** What about the “Inhibitory Ratio of NF-κ B Activation(%)” value (Drug Concentration 10 μg/mL) of the same compound?
**A.** Its value is 96.8%.

**Q.** What does the source list for `O=C(CCC(=O)Oc1ccc(Cl)cc1C(=O)Nc1cc(C(F)(F)F)cc(C(F)(F)F)c1)OCc1ccccc1` [Compound 18]?
**A.** Inhibitory Ratio of NF-κ B Activation(%) (Drug Concentration 1 μg/mL): 95.4%; Inhibitory Ratio of NF-κ B Activation(%) (Drug Concentration 10 μg/mL): 98.1%

**Q.** How did the “Inhibitory Ratio of NF-κ B Activation(%)” value (Drug Concentration 1 μg/mL) turn out when `O=C(CCC(=O)N1CCCCC1)Oc1ccc(Cl)cc1C(=O)Nc1cc(C(F)(F)F)cc(C(F)(F)F)c1` [Compound 19] was run?
**A.** Its value is 97.9%.

**Q.** And the “Inhibitory Ratio of NF-κ B Activation(%)” value (Drug Concentration 10 μg/mL)?
**A.** Its value is 98.8%.

**Q.** For `CC(=O)NCC(=O)Oc1ccc(Cl)cc1C(=O)Nc1cc(C(F)(F)F)cc(C(F)(F)F)c1` [Compound 20], which “Inhibitory Ratio of NF-κ B Activation(%)” value (Drug Concentration 1 μg/mL) is on record?
**A.** The value was 94.8%.

**Q.** And the “Inhibitory Ratio of NF-κ B Activation(%)” value (Drug Concentration 10 μg/mL)?
**A.** The value was 98.1%.

**Q.** `O=C(CNC(=O)OCc1ccccc1)Oc1ccc(Cl)cc1C(=O)Nc1cc(C(F)(F)F)cc(C(F)(F)F)c1` [Compound 21] was tested. Which “Inhibitory Ratio of NF-κ B Activation(%)” value (Drug Concentration 1 μg/mL) did it give?
**A.** Its value is 96.7%.

**Q.** And the “Inhibitory Ratio of NF-κ B Activation(%)” value (Drug Concentration 10 μg/mL)?
**A.** The value was 98.7%.

**Q.** For `CC(C)(C)OC(=O)NCC(=O)Oc1ccc(Cl)cc1C(=O)Nc1cc(C(F)(F)F)cc(C(F)(F)F)c1` [Compound 22, 2-[N-(tert-butoxycarbonyl)glycyl]oxy-5-chloro-N-[3,5-bis(trifluoromethyl)phenyl]-benzamide], which inhibition at 1 µg/mL (Drug Concentration 1 μg/mL) is on record?
**A.** The inhibition at 1 µg/mL was 35.3%.

**Q.** And the inhibition at 10 µg/mL (Drug Concentration 10 μg/mL)?
**A.** Its inhibition at 10 µg/mL is 98.7%.

**Q.** Which results are given for `Cl.NCC(=O)Oc1ccc(Cl)cc1C(=O)Nc1cc(C(F)(F)F)cc(C(F)(F)F)c1` [Compound 23]?
**A.** Inhibitory Ratio of NF-κ B Activation(%) (Drug Concentration 1 μg/mL): 19.8%; Inhibitory Ratio of NF-κ B Activation(%) (Drug Concentration 10 μg/mL): 97.3%

**Q.** Which inhibition at 1 µg/mL (Drug Concentration 1 μg/mL) does the source give for `CC(C)[C@H](NC(=O)OC(C)(C)C)C(=O)Oc1ccc(Cl)cc1C(=O)Nc1cc(C(F)(F)F)cc(C(F)(F)F)c1` [Compound 24, 2-[N-(tert-butoxycarbonyl)-L-valyl]oxy-5-chloro-N-[3,5-bis(trifluoromethyl)phenyl]-benzamide] here?
**A.** Its inhibition at 1 µg/mL is 96.3%.

**Q.** What about the inhibition at 10 µg/mL (Drug Concentration 10 μg/mL) of the same compound?
**A.** Its inhibition at 10 µg/mL is 96.8%.

**Q.** How did the “Inhibitory Ratio of NF-κ B Activation(%)” value (Drug Concentration 1 μg/mL) turn out when `CC(C)[C@H](N)C(=O)Oc1ccc(Cl)cc1C(=O)Nc1cc(C(F)(F)F)cc(C(F)(F)F)c1.Cl` [Compound 25] was run?
**A.** Its value is 93.4%.

**Q.** And the “Inhibitory Ratio of NF-κ B Activation(%)” value (Drug Concentration 10 μg/mL)?
**A.** Its value is 97.2%.

**Q.** Which results are given for `CC(C)C[C@H](NC(=O)OC(C)(C)C)C(=O)Oc1ccc(Cl)cc1C(=O)Nc1cc(C(F)(F)F)cc(C(F)(F)F)c1` [Compound 26, 2-[N-(tert-butoxycarbonyl)-L-leucyl]oxy-5-chloro-N-[3,5-bis(trifluoromethyl)phenyl]-benzamide]?
**A.** inhibition at 1 µg/mL (Drug Concentration 1 μg/mL): 97.8%; inhibition at 10 µg/mL (Drug Concentration 10 μg/mL): 98.9%

**Q.** What does the source list for `CC(C)C[C@H](N)C(=O)Oc1ccc(Cl)cc1C(=O)Nc1cc(C(F)(F)F)cc(C(F)(F)F)c1.Cl` [Compound 27]?
**A.** Inhibitory Ratio of NF-κ B Activation(%) (Drug Concentration 1 μg/mL): 95.8%; Inhibitory Ratio of NF-κ B Activation(%) (Drug Concentration 10 μg/mL): 99.2%

**Q.** With `CC(C)(C)OC(=O)N[C@@H](Cc1ccccc1)C(=O)Oc1ccc(Cl)cc1C(=O)Nc1cc(C(F)(F)F)cc(C(F)(F)F)c1` [Compound 28, 2-[N-(tert-butoxycarbonyl)-L-phenylalanyl]oxy-5-chloro-N-[3,5-bis(trifluoromethyl)-phenyl]benzamide] as the compound, how does the inhibition at 1 µg/mL (Drug Concentration 1 μg/mL) read?
**A.** Its inhibition at 1 µg/mL is 96.4%.

**Q.** And the inhibition at 10 µg/mL (Drug Concentration 10 μg/mL)?
**A.** The inhibition at 10 µg/mL was 98.4%.

**Q.** Which “Inhibitory Ratio of NF-κ B Activation(%)” value (Drug Concentration 1 μg/mL) does the source give for `Cl.N[C@@H](Cc1ccccc1)C(=O)Oc1ccc(Cl)cc1C(=O)Nc1cc(C(F)(F)F)cc(C(F)(F)F)c1` [Compound 29] here?
**A.** Its value is 90.2%.

**Q.** What about the “Inhibitory Ratio of NF-κ B Activation(%)” value (Drug Concentration 10 μg/mL) of the same compound?
**A.** The value was 97.5%.

Reference: patent US7626042B2, “O-substituted hydroxyaryl derivatives” (Institute of Medicinal Molecular Design, Inc., priority 2002, dated 2009)
